Literature values as cited in article PMC10005815 (Journal of Medicinal Chemistry, 2023).
pEC50: −log10 of the molar value. Like-named read-outs stand apart in the source and are kept apart here.

Test system: SARS-CoV-2

## N#C[C@]1(c2ccc3c(N)ncnn23)O[C@@H](CO)[C@H](O)[C@@H]1O [GS-441524]
  Increase of EC50 (resistance selection): 2.7–10.4 fold

## Cn1cnc(Cn2c(=O)[nH]/c(=N\c3cc4cn(C)nc4cc3Cl)n(Cc3cc(F)c(F)cc3F)c2=O)n1 [S-217622]
read-out: SARS-CoV-2 VOCs EC50
  pEC50: 6.30 to 6.54

## COc1ccc(C(=O)Nc2cccc(C(F)(F)F)c2)cc1Nc1nc(-c2cccnc2)c2[nH]ccc2n1 [XMU-MP-7]
read-out: EC50 against γ, δ, and o variants
  pEC50: > 8.16
